The supplement of paper PMC10307832

Experiments:
Test in all cases: relative viability (nuclei count vs DMSO), 5 days (fraction); higher = more cells survive
[1] = compound: CN[C@@H]1C[C@H]2O[C@@](C)([C@@H]1OC)n1c3ccccc3c3c4c(c5c6ccccc6n2c5c31)C(=O)NC4 [Staurosporine] + CC1(C)CCC(c2ccc(Cl)cc2)=C(CN2CCN(c3ccc(C(=O)NS(=O)(=O)c4ccc(N[C@H](CCN5CCOCC5)CSc5ccccc5)c(S(=O)(=O)C(F)(F)F)c4)cc3)CC2)C1 [Navitoclax] (partner 0.5 µM)
How it was run: (§1)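 Medians of duplicate plates are given as relative viability. That measure is the nuclei count in treated wells divided by the count in vehicle wells. Counts were taken on 4× images of lung cancer cell lines in 1536-well plates, 5 days after pin-tool dosing the day after seeding with one drug alone or a fixed anchor-drug dose plus five library-drug doses (not always all listed) in √10 steps.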

5-Fluorouracil + AZD7762 = compound: O=c1[nH]cc(F)c(=O)[nH]1 [5-Fluorouracil] + NC(=O)Nc1cc(-c2cccc(F)c2)sc1C(=O)N[C@H]1CCCNC1 [AZD7762] (partner 0.2 µM)
How it was run: as §1

[2] = compound: O=c1[nH]cc(F)c(=O)[nH]1 [5-Fluorouracil] + Nc1ncn([C@H]2C[C@H](O)[C@@H](CO)O2)c(=O)n1 [Decitabine] (partner 2 µM)
How it was run: as §1

[3] = compound: O=c1[nH]cc(F)c(=O)[nH]1 [5-Fluorouracil] + O=C(CCCCCCC(=O)Nc1ccccc1)NO [Vorinostat] (partner 1 µM)
How it was run: as §1

Row | Cell Line | relative viability ([1]; first compound 0.005 µM) | relative viability ([1]; first compound 0.01581 µM) | relative viability ([1]; first compound 0.05 µM) | relative viability ([1]; first compound 0.1581 µM) | relative viability ([1]; first compound 0.5 µM) | relative viability (5-Fluorouracil + AZD7762; first compound 0.02 µM) | relative viability (5-Fluorouracil + AZD7762; first compound 0.2 µM) | relative viability (5-Fluorouracil + AZD7762; first compound 0.6325 µM) | relative viability (5-Fluorouracil + AZD7762; first compound 2 µM) | relative viability ([2]; first compound 0.02 µM) | relative viability ([2]; first compound 0.2 µM) | relative viability ([2]; first compound 0.6325 µM) | relative viability ([2]; first compound 2 µM) | relative viability ([3]; first compound 0.02 µM) | relative viability ([3]; first compound 0.2 µM) | relative viability ([3]; first compound 0.6325 µM) | relative viability ([3]; first compound 2 µM)
1 | EPLC-272H | 1.34 | 0.463 | 0.409 | 0.163 | 0.19 | 0.243 | 0.122 | 0.109 | 0.102 | 0.357 | 0.305 | 0.224 | 0.22 | 0.621 | 0.401 | 0.279 | 0.241
2 | ChaGo-K-1 | 0.926 | – | 0.79 | 0.29 | 0.27 | 0.883 | 0.917 | 0.609 | 0.383 | 0.573 | 0.519 | 0.435 | 0.439 | 0.814 | 0.687 | 0.622 | 0.384
3 | NCI-H1651 | 0.897 | 0.559 | 0.305 | 0.112 | 0.0765 | 0.458 | 0.234 | 0.186 | – | 0.598 | 0.613 | 0.321 | 0.264 | 0.529 | 0.531 | 0.246 | 0.245
4 | HCC-44 | 0.867 | 0.28 | 0.215 | 0.185 | 0.13 | 1.01 | 0.925 | 0.733 | 0.466 | 1.07 | 0.96 | 0.94 | 0.77 | 1.09 | 1.07 | 0.824 | 0.544
5 | NCI-H460 | 0.949 | 0.87 | 0.232 | 0.0102 | 0.0078 | 0.678 | 0.332 | 0.0757 | 0.0672 | 0.484 | 0.38 | 0.111 | 0.0586 | 0.903 | 0.222 | 0.082 | 0.0565
6 | LOU-NH91 | 0.725 | 0.455 | 0.367 | 0.269 | 0.249 | 0.754 | 0.725 | 0.44 | 0.313 | 0.873 | 0.874 | 0.838 | 0.534 | 0.937 | 0.988 | 0.607 | 0.35
7 | RERF-LC-KJ | 1.14 | 0.665 | 0.479 | 0.244 | 0.236 | 0.973 | – | 0.948 | 0.893 | 0.66 | 0.762 | 0.776 | 0.736 | 0.741 | 0.736 | 0.725 | 0.56
